{"source": "PubChem BioAssay AID588661", "about": "(The Scripps Research Institute Molecular Screening Center, 2011)", "key": {"[1]": {"target": "Krueppel-like factor 5 (Homo sapiens) (UniProt Q13887)", "sequence (Q13887 whole entry, looked up)": "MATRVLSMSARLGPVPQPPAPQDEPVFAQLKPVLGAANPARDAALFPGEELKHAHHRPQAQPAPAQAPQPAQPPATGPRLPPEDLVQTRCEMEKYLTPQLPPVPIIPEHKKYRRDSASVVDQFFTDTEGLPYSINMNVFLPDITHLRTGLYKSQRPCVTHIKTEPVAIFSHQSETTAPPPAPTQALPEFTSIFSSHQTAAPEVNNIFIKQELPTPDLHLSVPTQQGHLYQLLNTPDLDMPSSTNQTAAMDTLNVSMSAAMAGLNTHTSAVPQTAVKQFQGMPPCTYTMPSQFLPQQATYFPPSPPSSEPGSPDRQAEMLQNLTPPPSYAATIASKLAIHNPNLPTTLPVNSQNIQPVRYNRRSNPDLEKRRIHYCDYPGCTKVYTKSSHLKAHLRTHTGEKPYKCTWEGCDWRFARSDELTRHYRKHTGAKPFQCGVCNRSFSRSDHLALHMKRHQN", "assay": "change in KLF5 protein levels, late-stage follow-up, counter-screen for KLF5 inhibitor project, western blot, chemiluminescence, SW620 colorectal cells (AID 588661)", "conditions": "SW620 cells, KLF5 protein western blot, 24 h; at 10 µM; stronger effect = higher value"}, "[2]": {"tested_on": "SW620 cells, KLF5 protein western blot, 24 h", "assay": "change in KLF5 protein levels, late-stage follow-up, counter-screen for KLF5 inhibitor project, western blot, chemiluminescence, SW620 colorectal cells (AID 588661)", "conditions": "measured here: KLF5 protein fold change vs DMSO; at 10 µM"}}, "note": "Active and inactive are the calls of the source.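 The calls were made as follows: active = KLF5 protein level in colon cancer cells lowered or raised by 30% or more versus solvent-only cells; inactive = the rest.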"}
{"smiles": "CN(C(=O)COC(=O)/C=C/c1cccc([N+](=O)[O-])c1)C1CCS(=O)(=O)C1", "note": "(configuration not stated)", "values": [{"measurement": "inhibition", "setting": "[1]", "value": "7.48% (inactive)"}, {"measurement": "signed fold change vs DMSO (negative = decrease)", "setting": "[2]", "value": -1.08}]}
